The conditions of series [1]: cited from earlier work.
For the next series, the target named is T1, steroid sulphatase (Homo sapiens, UniProt P08842).
T1 sequence (P08842 22-583): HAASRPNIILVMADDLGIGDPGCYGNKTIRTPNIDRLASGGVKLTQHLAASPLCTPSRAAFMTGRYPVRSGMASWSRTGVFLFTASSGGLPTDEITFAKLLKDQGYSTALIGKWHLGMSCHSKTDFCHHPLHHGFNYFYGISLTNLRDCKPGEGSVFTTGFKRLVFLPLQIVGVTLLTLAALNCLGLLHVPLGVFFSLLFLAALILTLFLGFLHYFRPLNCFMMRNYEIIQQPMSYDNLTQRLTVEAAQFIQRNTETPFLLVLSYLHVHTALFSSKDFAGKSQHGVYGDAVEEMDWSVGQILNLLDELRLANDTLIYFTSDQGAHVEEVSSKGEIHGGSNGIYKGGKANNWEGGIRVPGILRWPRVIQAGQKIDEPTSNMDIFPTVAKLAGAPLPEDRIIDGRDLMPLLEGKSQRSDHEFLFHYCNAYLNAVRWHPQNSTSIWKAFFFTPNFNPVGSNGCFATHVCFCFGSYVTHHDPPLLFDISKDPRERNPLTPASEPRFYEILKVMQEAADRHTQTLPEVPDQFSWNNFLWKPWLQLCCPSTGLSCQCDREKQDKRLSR
The note with it: compared with EMATE; cited from earlier work.

A further series has as its system breast cancer cells. Particulars: Raobaikady et al., 2003; cited from earlier work.
Series [2] deals with LNCaP cells. Particulars: previously calculated by Day and Newman, read-out: IC50, inhibition of proliferation; cited from earlier work.
Another series deals with p-glycoprotein (Homo sapiens, UniProt P08183). Particulars: Suzuki, 2003; cited from earlier work.
Series [3] concerns LNCaP cells. Put plainly: Cell morphology (microscopy). Particulars: STX140 0.5 μM, 2DG 8 mM, 96 h, normoxia. Type of series: cell-based. From the text: (§1) Cells were examined using a Zeiss inverted microscope fitted with a 20× and 40× Plan-Neofluor objective, and analysed through an Axiovision imaging system attached to the microscope.
The subject of series [4] is MCF-7 cells. Nature of the series: Cell morphology (microscopy). In kind it is cell-based. Particulars: MCF-7, STX140 0.5 μM, 2DG 8 mM, 96 h, normoxia.
From the text: as §1

In series [5] the test system is LNCaP cells. Put plainly: Measurement of ATP (ATPlite assay). The note with it: 72 h, 2DG 8 mM; for ATP levels: normoxia or hypoxia, STX140 0.1 μM-1 μM, vs untreated normoxic controls. Type of series: cell-based. The protocol: (§2) An Innova co-48 CO2 humidified incubator (Newbrunswick Scientific, St. Albans, U.K.) was used to study the effects of 2DG and STX140 on cells under hypoxic conditions. Oxygen was maintained at 1%, CO2 5% and temperature at 37° C.
(§3) MCF-7 and LNCaP cells were seeded at 3000 cells/well or 5000 cells/well respectively, in 96 well plates. Compounds were added 4 hours following seeding of cells. The ATPlite assay procedure was carried out according to manufacturer's instructions (Perkin Elmer, Beaconsfield, U.K.) and ATP measured 72 hrs later using a FluoStar Optima Plate reader.
(In general: In ATP-based viability assays light output follows the ATP content of the culture.)

The test system of series [6] is MCF-7 cells. Nature of the series: Measurement of ATP (ATPlite assay). In kind it is cell-based. Particulars: for ATP levels: MCF-7, 72 h, normoxia or hypoxia, 2DG 8 mM, STX140 0.1 μM-1 μM, vs untreated normoxic controls. The protocol:
as §2, §3

The subject of the next series is vessel formation. The note with it: novel co-culture model system, Newman et al., 2004; cited from earlier work.
The test system of another series is MCF-7 tumours. Nature of the series: In vivo tumour xenograft model, MCF-7 cell tumours. Particulars: athymic nude mice, STX140 5 mg/kg p.o. daily, 2DG 2 g/kg i.p. daily, 28 days, compared to control. The method, then:
Intact, ovariectomized, athymic, female MF-1 nude mice (nu-/nu-) were purchased from Harlan (Bicester, Oxon, UK) at 5 weeks of age (˜20-25 g in weight). All experiments were carried out under conditions that complied with institutional guidelines. Animals were kept in a 12-hour light/12-hour dark cycle and given food and water ad libitum. Monolayers of MCF-7 cells were removed by trypsinization, and the resultant cell suspension was centrifuged for 5 min. at 1,000×g and then resuspended in ice-cold matrigel (BD Biosciences). Five million MCF-7 cells were injected s.c. into the right flank of the animals. The tumours were allowed to grow for 2 weeks, when the tumours reached 100-150 mm^3 in volume, mice were randomly divided into four treatment groups: 1) vehicle (10% tetrahydrofuran; 90% propylene glycol, […] oral)+saline i.p. 200 ml; 2) vehicle+2DG (2 g/kg) i.p. 200 ml; 3) STX140 (5 mg/kg) […] oral+saline i.p. 200 ml; 4) STX140 (5 mg/kg) […] oral+2DG (2 g/kg) i.p. 200 ml. All treatments were administered daily for 4 weeks, […]. Throughout the study, mice were weighed and tumour measurements were taken on a weekly basis. Tumour volumes were calculated using the formula: length×width^2/2. At the end of the study, tumours were collected for immunohistochemical analysis.

A further series has as its system HUVEC cells. The note with it: Newman et al., 2004; cited from earlier work.
Series [7] deals with MCF-7 cells. Particulars: MCF-7, previously calculated by Day and Newman; read-out: IC50, inhibition of proliferation; cited from earlier work.
In the next series the test system is von Willebrand's factor. Nature of the series: von Willebrand's factor immunohistochemistry of xenograft sections (vessel density). Type of series: in vivo, mice. Particulars: sections of MCF-7 xenografts, STX140 5 mg/kg p.o. daily, 2DG 2 g/kg i.p. daily.
For series [8], the system named is LNCaP cells. Nature of the series: Proliferation assay (Alamar blue, microtiter plate). Type of series: cell-based. Particulars: Homo sapiens; for inhibition at 8000 µM: 2DG alone 8 mM, read-out: inhibition of cell growth. The method, then:
(§4) MCF-7 and LNCaP cells were obtained from the American Tissue Culture Collection (ATCC). Cells were cultured in the following supplements, obtained from Sigma: RPMI 1640 with 10% foetal bovine serum, 1% L-glutamine, 1% MEM non-essential amino acids, 1% sodium bicarbonate solution, LNCaP cells also required 1% sodium pyruvate. Cells were maintained in an incubator at 37° C. under 5% CO2 and 95% air atmosphere.
(§5) MCF-7 and LNCaP cells were seeded at 3000 cells/well or 5000 cells/well respectively, in 96 well plates. Compounds were added 4 hours after seeding of cells. […]
as §2
Background: Resazurin is reduced to fluorescent resorufin, in cell work by metabolically active cells.

Series [9] has as its system MCF-7 cells. Described as above. In kind it is cell-based. Particulars: Homo sapiens; for inhibition at 0.5 µM / inhibition at 8000 µM: MCF7, 72 h; for inhibition at 8000 µM: MCF-7, 2DG alone 8 mM, 72 h, read-out: inhibition of cell growth. The method, then: as §4, §5, §2
The conditions of series [10]: cited from earlier work. This is another data set of the same source.
The test system of series [11] is r^□ cells which have lost their mitochondrial DNA. The note with it: Liu et al., 2001; cited from earlier work.

SMILES strings stand for the structures. pIC50: −log10 of the molar value. “Also recorded” adds a separate entry of the source. Like-named read-outs stand apart in the source and are kept apart here.

Sequence of p-glycoprotein (P08183 whole entry): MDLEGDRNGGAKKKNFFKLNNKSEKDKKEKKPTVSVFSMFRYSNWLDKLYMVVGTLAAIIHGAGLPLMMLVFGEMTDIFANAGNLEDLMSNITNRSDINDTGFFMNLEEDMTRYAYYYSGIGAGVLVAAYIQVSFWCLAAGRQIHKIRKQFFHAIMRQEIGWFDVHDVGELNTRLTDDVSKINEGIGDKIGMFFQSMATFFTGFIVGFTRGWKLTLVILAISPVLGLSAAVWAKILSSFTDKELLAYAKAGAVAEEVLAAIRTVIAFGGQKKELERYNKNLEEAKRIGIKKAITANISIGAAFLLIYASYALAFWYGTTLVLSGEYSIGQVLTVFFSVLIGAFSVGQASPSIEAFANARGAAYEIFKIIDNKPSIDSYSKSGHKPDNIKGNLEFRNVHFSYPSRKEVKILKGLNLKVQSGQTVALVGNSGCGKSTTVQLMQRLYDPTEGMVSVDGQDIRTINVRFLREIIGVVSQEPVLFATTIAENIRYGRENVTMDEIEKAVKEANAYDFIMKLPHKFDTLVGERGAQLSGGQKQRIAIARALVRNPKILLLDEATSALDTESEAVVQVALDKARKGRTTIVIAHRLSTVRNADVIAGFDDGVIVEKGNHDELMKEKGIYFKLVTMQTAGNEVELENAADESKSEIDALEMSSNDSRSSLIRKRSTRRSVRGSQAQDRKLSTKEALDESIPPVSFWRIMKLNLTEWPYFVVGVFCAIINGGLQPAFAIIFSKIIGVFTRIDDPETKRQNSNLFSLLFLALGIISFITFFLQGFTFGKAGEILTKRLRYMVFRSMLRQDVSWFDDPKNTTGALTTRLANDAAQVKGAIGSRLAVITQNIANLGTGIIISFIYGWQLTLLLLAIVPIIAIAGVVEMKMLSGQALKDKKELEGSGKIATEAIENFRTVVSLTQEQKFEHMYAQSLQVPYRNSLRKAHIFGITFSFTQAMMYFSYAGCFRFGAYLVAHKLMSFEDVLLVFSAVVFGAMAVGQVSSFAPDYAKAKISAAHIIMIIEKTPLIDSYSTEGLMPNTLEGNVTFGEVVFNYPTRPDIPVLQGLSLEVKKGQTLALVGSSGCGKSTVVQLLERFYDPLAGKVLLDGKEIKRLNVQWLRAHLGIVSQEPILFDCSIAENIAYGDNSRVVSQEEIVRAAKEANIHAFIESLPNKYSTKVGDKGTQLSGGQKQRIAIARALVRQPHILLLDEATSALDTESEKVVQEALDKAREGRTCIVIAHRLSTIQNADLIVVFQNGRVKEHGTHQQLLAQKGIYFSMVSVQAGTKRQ

With `COc1cc2c(cc1OS(N)(=O)=O)CC[C@@H]1[C@@H]2CC[C@]2(C)C(=O)CC[C@@H]12` [2-methoxyoestrone-3-O-sulphamate], the oestrogenicity result in series [1] (rat, in vivo) was “devoid of oestrogenicity”. Further, the “potency as steroid sulphatase inhibitor” value on steroid sulphatase is listed as “equipotent with EMATE”.
Regarding `COc1cc2c(cc1OS(N)(=O)=O)CCC1C2CC[C@]2(C)C(OS(N)(=O)=O)CCC12` (stereo partly shown) [STX140, 2-Methoxyestradiol-3,17-O,O-bis-sulfamate], the “potency as inhibitor of breast cancer cells compared to 2-MeOE2” value in the series on breast cancer cells was 6 times. Moreover, the pIC50 is 6.59 in the series with LNCaP cells [2]; 6.60 in the series with MCF-7 cells [7]; 6.50 with LNCaP cells [8] (72 h, read-out: IC50, inhibition of proliferation, LNCaP, hypoxic, 72 h); 6.53 in the series on LNCaP cells [8] (72 h, read-out: IC50, inhibition of proliferation, LNCaP, normoxic, 72 h). For the same molecule, the substrate for p-glycoprotein result on p-glycoprotein is reported as “not a substrate for p-glycoprotein”. Moreover, the cell morphology result in the series on LNCaP cells [3] and with MCF-7 cells [4] was “shrivelled appearance” throughout. The ATP levels result in the series with LNCaP cells [5] and with MCF-7 cells [6] was “drops significantly” in each case. For the same molecule, the “activity as inhibitor of vessel formation compared to 2-MeOE2” value with vessel formation was 10-13 times. The “growth of MCF-7 tumours” value in the series with MCF-7 tumours (5 mg/kg) is given as “significantly inhibited”. Besides, the “inhibition of proliferation of HUVEC cells compared to 2-MeOE2” value in the series on HUVEC cells was 60 fold. Besides, in the series on von Willebrand's factor (5 mg/kg), the “von Willebrand's factor staining for endothelial cells (blood vessels)” value is reported as “decrease in blood vessels; also recorded: significant reduction”. Further, the inhibition at 0.5 µM with LNCaP cells [8] (72 h, read-out: inhibition of cell proliferation) is 65%; in the series with MCF-7 cells [9] (read-out: inhibition of cell proliferation, MCF-7, STX140 0.5 μM, hypoxia, 72 h, vs normoxic untreated controls), 48%; in the series with MCF-7 cells [9] (read-out: inhibition of cell proliferation, MCF-7, STX140 0.5 μM, normoxia, 72 h, vs normoxic untreated controls) it was 45%. The oral bioavailability entry in [10] (literature (Ireson 2004)) is on record as “orally bioavailable”.
On to `O=CC[C@@H](O)[C@H](O)[C@H](O)CO` [2DG, 2-deoxy-D-glucose], for which the cell morphology result in the series on LNCaP cells [3] and in the series on MCF-7 cells [4] was “cells appear to swell up” each time. Besides, the “ATP per living cell” value in the series on LNCaP cells [5] (vs untreated controls) is “significantly decreases ATP”; in the series on MCF-7 cells [6] (MCF-7, 2DG 8 mM, 72 h, vs untreated controls), “significantly decreases ATP”. In addition, the ATP levels entry in the series with LNCaP cells [5] and in the series on MCF-7 cells [6] was “decreases ATP” throughout. Besides, in the series with MCF-7 tumours, the “growth of MCF-7 tumours” value is on record as “did not significantly inhibit tumour growth”. Besides, the “sensitivity of cells lacking mitochondrial DNA relative to wt cells” value in series [11] is listed as 10 times. In the series on von Willebrand's factor, the “von Willebrand's factor staining for endothelial cells (blood vessels)” value is on record as “no significant effect”. Further, the inhibition at 8000 µM with LNCaP cells [8] (72 h, hypoxic, 72 h) worked out at 75%; with LNCaP cells [8] (72 h, normoxic, 72 h) it was 50%; in the series with MCF-7 cells [9] (hypoxic) it was 70%; in the series with MCF-7 cells [9] (normoxic), 50%. The pIC50 in the series with LNCaP cells [8] (120 h, 5 day period, normoxic conditions, read-out: IC50, inhibition of proliferation) is 2.17; in the series with MCF-7 cells [9] (MCF7, 120 h, MCF-7, 5 day period, normoxic conditions, read-out: IC50, inhibition of proliferation), 2.09.
On to `C[C@]12CC[C@@H]3c4ccc(OS(N)(=O)=O)cc4CC[C@H]3[C@@H]1CCC2=O` [EMATE, oestrone-3-O-sulphamate], for which the “oral uterotrophic activity relative to estradiol” value in [1] (rats, oral) is reported as 100 times.
For `COc1cc2c(cc1O)CC[C@@H]1[C@@H]2CC[C@]2(C)[C@@H](O)CC[C@@H]12` [2-MeOE2, 2-methoxyoestradiol, reference compound], the oral bioavailability result in series [10] (in vivo, po) was “very poor oral bioavailability”.
